# In ChEMBL document CHEMBL5696441 (Nat Chem Biol, 2011):
# How the values were obtained:
# [1] = biological target: T1, cGMP-dependent protein kinase 1 (Homo sapiens) (UniProt Q13976); experiment: Inhibition of human PRKG1 assessed as residual activity at 1 uM using 3xChocktide-PKC(19-31) as substrate in presence of 33P-ATP by ProQinase assay relative to control
# T1 sequence (whole entry): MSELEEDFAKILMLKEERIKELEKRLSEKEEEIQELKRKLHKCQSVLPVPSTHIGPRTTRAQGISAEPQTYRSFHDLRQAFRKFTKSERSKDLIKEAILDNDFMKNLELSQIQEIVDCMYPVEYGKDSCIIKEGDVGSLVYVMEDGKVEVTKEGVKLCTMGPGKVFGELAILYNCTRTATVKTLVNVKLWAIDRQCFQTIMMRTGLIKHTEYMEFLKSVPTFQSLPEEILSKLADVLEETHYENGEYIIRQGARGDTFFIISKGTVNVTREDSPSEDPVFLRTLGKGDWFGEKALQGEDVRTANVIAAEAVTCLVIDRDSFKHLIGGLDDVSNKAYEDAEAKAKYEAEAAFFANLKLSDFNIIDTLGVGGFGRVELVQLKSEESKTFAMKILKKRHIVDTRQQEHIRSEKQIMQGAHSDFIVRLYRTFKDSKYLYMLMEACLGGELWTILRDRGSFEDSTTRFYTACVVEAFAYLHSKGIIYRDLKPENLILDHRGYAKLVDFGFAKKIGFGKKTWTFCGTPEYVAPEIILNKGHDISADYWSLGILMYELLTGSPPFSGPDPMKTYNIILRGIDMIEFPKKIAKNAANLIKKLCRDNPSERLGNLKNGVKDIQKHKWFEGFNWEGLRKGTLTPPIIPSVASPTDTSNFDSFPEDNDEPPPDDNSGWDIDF
# [2] = biological target: T2, Tyrosine-protein kinase JAK3 (Homo sapiens) (UniProt P52333); experiment: Inhibition of human JAK3 assessed as residual activity at 1 uM using poly(Ala,Glu,Lys,Tyr)6:2:5:1 as substrate in presence of 33P-ATP by ProQinase assay relative to control
# T2 sequence (whole entry): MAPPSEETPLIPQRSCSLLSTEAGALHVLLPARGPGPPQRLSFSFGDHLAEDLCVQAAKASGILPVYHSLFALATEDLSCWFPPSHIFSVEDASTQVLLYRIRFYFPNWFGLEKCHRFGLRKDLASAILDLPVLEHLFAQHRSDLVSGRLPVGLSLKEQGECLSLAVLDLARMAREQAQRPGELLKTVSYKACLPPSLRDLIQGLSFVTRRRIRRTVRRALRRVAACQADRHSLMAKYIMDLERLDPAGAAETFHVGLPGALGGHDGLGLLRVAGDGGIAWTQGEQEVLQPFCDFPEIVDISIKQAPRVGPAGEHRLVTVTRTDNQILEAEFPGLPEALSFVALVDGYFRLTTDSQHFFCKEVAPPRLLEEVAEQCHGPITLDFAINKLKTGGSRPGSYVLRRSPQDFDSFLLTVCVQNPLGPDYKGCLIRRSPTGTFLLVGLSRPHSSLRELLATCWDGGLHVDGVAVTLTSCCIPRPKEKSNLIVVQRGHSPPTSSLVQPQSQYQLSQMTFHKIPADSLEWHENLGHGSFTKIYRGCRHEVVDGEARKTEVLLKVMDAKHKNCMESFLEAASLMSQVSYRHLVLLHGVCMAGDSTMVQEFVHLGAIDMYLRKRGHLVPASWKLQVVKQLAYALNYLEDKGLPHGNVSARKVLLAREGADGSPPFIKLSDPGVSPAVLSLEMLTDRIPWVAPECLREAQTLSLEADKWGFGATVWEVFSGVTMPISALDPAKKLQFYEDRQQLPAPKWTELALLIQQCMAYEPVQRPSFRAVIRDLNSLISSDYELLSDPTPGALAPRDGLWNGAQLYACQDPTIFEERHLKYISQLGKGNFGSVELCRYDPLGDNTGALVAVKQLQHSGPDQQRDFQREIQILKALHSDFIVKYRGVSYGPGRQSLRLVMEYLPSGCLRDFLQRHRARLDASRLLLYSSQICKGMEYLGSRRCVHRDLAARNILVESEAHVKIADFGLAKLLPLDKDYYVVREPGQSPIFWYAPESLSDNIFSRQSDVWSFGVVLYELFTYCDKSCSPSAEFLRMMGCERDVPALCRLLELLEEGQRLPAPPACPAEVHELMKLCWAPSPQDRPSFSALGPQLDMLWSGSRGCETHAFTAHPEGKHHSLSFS
# [3] = biological target: Leukocyte tyrosine kinase receptor (Homo sapiens) (UniProt P29376); experiment: Inhibition of LTK (unknown origin) assessed as remaining activity at 1 uM by Kinome scan method relative to control
# [4] = biological target: Fibroblast growth factor receptor 2 (Homo sapiens) (UniProt P21802); experiment: Inhibition of human FGFR2 assessed as residual activity at 1 uM using PolyEY as substrate in presence of 33P-ATP by ProQinase assay relative to control
# [5] = biological target: Dual specificity mitogen-activated protein kinase kinase 1 (Homo sapiens) (UniProt Q02750); experiment: Inhibition of MEK1 (unknown origin) assessed as remaining activity at 1 uM by Kinome scan method relative to control
# [6] = biological target: Mitogen-activated protein kinase 13 (Homo sapiens) (UniProt O15264); experiment: Inhibition of P38delta (unknown origin) assessed as remaining activity at 1 uM by Kinome scan method relative to control
# [7] = biological target: Serine/threonine-protein kinase Sgk1 (Homo sapiens) (UniProt O00141); experiment: Inhibition of human SGK1 assessed as residual activity at 1 uM using RBER-GSK3(14-27) as substrate in presence of 33P-ATP by ProQinase assay relative to control
# [8] = biological target: Cyclin-dependent kinase 8 (Homo sapiens) (UniProt P49336); experiment: Inhibition of CDK8 (unknown origin) assessed as remaining activity at 1 uM by Kinome scan method relative to control
# Cyclin-dependent kinase 8 (Homo sapiens), sequence (P49336 whole entry): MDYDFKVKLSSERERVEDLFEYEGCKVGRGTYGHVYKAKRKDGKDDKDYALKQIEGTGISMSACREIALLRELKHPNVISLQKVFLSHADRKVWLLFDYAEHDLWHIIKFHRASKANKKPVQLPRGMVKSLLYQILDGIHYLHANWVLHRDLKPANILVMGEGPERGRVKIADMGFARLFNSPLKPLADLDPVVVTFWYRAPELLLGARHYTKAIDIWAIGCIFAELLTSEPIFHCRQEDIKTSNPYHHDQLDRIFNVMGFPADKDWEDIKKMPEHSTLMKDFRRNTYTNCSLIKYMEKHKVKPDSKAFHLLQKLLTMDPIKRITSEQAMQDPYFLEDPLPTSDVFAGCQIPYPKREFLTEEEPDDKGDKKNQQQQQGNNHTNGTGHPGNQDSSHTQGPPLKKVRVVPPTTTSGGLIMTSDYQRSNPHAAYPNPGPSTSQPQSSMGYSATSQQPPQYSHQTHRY
# Serine/threonine-protein kinase Sgk1 (Homo sapiens), sequence (O00141 whole entry): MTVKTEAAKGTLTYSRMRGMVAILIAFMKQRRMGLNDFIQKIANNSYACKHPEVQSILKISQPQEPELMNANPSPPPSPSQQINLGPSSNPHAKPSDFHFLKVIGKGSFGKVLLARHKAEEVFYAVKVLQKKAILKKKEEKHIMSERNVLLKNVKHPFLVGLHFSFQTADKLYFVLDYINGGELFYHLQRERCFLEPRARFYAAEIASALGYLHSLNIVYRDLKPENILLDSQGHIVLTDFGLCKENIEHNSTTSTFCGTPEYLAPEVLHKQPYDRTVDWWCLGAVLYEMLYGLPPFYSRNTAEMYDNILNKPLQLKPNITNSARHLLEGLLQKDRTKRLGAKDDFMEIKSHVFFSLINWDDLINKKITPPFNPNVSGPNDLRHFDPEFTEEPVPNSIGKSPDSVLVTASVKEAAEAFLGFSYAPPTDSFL
# Leukocyte tyrosine kinase receptor (Homo sapiens), sequence (P29376 whole entry): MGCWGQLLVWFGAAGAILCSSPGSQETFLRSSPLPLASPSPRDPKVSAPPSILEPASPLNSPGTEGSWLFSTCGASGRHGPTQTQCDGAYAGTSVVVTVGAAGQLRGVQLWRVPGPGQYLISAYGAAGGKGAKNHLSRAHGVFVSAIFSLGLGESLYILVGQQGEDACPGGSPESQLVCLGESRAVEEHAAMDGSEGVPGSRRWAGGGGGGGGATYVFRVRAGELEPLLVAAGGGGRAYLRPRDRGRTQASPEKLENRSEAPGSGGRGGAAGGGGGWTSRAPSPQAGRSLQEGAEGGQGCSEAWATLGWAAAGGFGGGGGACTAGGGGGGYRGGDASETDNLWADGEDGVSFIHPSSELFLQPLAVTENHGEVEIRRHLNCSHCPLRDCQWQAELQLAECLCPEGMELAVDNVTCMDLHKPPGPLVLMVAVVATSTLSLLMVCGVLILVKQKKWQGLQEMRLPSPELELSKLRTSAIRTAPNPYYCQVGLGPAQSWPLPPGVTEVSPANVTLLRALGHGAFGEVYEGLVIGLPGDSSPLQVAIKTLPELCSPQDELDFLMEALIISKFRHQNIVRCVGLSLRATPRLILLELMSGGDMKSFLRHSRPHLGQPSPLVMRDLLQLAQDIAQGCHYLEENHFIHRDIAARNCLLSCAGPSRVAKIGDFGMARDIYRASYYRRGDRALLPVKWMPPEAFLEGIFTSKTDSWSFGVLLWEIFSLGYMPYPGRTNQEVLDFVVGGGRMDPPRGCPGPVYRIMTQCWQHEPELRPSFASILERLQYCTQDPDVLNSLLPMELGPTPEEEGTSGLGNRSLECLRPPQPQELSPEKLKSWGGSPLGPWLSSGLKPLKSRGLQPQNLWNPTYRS
# Fibroblast growth factor receptor 2 (Homo sapiens), sequence (P21802 22-821 limits assumed): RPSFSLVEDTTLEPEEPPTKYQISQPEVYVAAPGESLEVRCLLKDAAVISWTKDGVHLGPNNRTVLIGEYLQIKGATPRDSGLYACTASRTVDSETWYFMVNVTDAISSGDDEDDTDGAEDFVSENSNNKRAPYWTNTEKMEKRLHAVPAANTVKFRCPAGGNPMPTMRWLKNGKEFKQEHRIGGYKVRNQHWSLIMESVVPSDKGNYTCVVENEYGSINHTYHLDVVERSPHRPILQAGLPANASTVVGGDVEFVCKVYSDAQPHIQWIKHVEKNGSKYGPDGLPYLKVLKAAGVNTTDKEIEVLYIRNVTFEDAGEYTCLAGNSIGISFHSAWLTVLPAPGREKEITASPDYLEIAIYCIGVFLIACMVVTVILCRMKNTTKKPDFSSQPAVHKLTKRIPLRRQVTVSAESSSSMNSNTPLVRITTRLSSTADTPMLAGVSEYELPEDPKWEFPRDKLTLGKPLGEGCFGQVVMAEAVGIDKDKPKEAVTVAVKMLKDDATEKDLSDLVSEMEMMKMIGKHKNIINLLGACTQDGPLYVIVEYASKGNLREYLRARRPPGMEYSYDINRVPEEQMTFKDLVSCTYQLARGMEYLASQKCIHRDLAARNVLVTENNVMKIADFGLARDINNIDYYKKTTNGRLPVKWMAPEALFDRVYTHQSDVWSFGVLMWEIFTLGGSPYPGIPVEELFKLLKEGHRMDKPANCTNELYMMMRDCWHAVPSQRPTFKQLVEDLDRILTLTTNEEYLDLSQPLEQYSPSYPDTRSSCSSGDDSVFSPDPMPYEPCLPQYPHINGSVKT
# Mitogen-activated protein kinase 13 (Homo sapiens), sequence (O15264 whole entry): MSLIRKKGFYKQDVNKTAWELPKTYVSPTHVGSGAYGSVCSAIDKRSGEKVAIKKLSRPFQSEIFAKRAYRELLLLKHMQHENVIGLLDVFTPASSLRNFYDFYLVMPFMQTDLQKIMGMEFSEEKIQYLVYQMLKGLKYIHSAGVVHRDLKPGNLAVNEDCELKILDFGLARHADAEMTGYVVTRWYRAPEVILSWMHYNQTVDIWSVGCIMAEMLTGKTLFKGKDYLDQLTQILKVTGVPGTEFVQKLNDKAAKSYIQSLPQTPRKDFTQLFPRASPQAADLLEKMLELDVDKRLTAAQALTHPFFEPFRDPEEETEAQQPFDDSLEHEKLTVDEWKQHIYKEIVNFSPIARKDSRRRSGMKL
# Dual specificity mitogen-activated protein kinase kinase 1 (Homo sapiens), sequence (Q02750 whole entry): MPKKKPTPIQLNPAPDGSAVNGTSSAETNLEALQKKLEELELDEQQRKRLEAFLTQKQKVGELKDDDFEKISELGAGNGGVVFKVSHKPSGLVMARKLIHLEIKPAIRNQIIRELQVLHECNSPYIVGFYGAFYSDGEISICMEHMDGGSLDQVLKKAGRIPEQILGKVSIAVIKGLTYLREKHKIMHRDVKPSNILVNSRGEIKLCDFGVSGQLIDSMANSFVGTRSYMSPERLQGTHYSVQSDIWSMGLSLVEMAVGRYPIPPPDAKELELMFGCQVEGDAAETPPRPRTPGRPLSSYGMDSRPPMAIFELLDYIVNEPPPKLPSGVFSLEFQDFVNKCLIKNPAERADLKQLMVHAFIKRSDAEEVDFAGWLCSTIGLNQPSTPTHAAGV
compound,measurement,setting,value
O=C1c2ccc(Nc3ccc(F)cc3F)cc2CCc2ccc(OC[C@H](O)CO)cc21 [Skepinone-L],Activity,[1],110%
same,Activity,[2],103%
same,Activity,[3],100%
same,Activity,[4],125%
same,Activity,[5],86%
same,Activity,[6],85%
same,Activity,[7],90%
same,Activity,[8],100%
